In PubChem BioAssay AID1963826 (Molecular Pharmacology Branch, DTP, NCI, 2024):

Tested on: 926638-142-R-J1-PDC complex spheroid viability
Experiment: Anticancer human tumor 926638-142-R-J1-PDC patient-derived endometrial carcinoma cell line growth inhibition [POLQ]
Details: for IC50: curve of first compound; for viability, T/C: stronger effect = lower value
Method: Multicellular complex tumor spheroid response to Polymerase (POL) inhibitors (novobiocin, ART-558, RP6685) in combination with a variety of drugs and investigational agents in selected tumor cell lines
The POL inhibitors (novobiocin, ART-558, and RP6685) were evaluated both individually and in combination with standard of care and investigational anticancer small molecules within a complex spheroid model of solid tumors. . Complex spheroids include a stromal component modeled by human endothelial cells (HUVEC) and fibroblasts modeled by human mesenchymal stem cells (MSCs). The concentration ranges selected for each drug and investigational agent were based upon clinically achievable concentrations if the clinical Cmax of the agent was known.
Compounds. The drugs and investigational agents: novobiocin (NSC847541), ART-558 (NSC835418), RP-6685 (NSC848927), peposertib (NSC802822), ceralasertib (NSC780249), elimusertib (NSC800525), camonsertib (NSC841442), AZD-1390 (NSC803789), olaparib (NSC753686), talazoparib (NSC767125), rucaparib (NSC756644), sotorasib (NSC818433), MRTX-1133 (NSC836407), SN-38 (NSC673596), topotecan (NSC609699), epotoside (NSC141540), doxorubicin (NSC123127), gemcitabine (NSC613327), 5-fluorouracil (NSC19893), paclitaxel (NSC125973), vemurafenib (NSC761431), MSA-2 (NSC828583), SN-011 (NSC837082), adavosertib (NSC754352), prexasertib (NSC758257), carboplatin (NSC241240) and oxaliplatin (NSC266046), were obtained from the National Cancer Institute (NCI) Developmental Therapeutics Program Chemical Repository (21). The FDA-approved anticancer drug set is available from the Developmental Therapeutics Program at https://dtp.cancer.gov/organization/dscb/obtaining/. […] The stock solutions were prepared in dimethyl sulfoxide (DMSO, Sigma-Aldrich, St. Louis, MO, cat. D2650), except for the platinum compounds which were prepared in saline (Quality Biological, Gaithersburg, MD, cat. 114-055-101), at 800-fold the tested concentration and stored at -70 degrees C prior to their use. All drugs and investigational agents were tested over a range starting from a high concentration at or near the clinical Cmax and decreasing in half-log increments. If the clinical Cmax for an agent had not been determined, the highest concentration tested was 10 microM, except for SN-38, which was tested at a high concentration of 1 microM.
Cell Culture. All cells were maintained in an incubator at 37 degrees C and 5% CO2 with 95% humidity. The PDC lines were cultured according to standard operating procedures established by the NCI PDMR (https://pdmr.cancer.gov). Table 3 of the manuscript, lists the cell lines along with the number of the three cell types plated to form the mct-spheroids and media for tumor cell growth. After thawing, all PDC lines, except 997537-175-T-J1-PDC and 415267-285-R-J2-PDC, were cultured in Matrigel-coated flasks prepared with a working solution of 1X Ham's F-12 nutrient mix, without supplementation (Thermo Fisher Scientific, cat. 11765054), 100 U/mL penicillin-streptomycin (Thermo Fisher Scientific, cat. 15140122), and 2.5% Matrigel (Corning Inc., Corning, NY, cat. 354248) for the first three passages. The two PDC lines 997537-175-T-J1-PDC and 415267-285-R-J2-PDC were cultured on uncoated flasks. The 857933-349-R-J2-PDC line was cultured in 6C/Colon 1B media containing advanced DMEM/F-12 (Thermo Fisher Scientific, cat. 12634028), 10 mM HEPES (Thermo Fisher Scientific, cat. 15630080), 1X GlutaMAX supplement (Thermo Fisher Scientific, cat. 35050061), 0.1 mg/mL primocin (InvivoGen, San Diego, CA, cat. ant-pm-2), 10% defined fetal bovine serum, heat inactivated (HyClone Laboratories Inc., Logan, UT, cat. SH30070.03HI), 50% L-WRN conditioned media (ATCC, cat. CRL-3276), 1.25 mM N-Acetyl-L-cysteine (Sigma-Aldrich, cat. A9165), 10 mM nicotinamide (Sigma-Aldrich, cat. N0636), 1X B-27 supplement (Thermo Fisher Scientific, cat. 17504044), 1X N-2 supplement (Thermo Fisher Scientific, cat. […]

[1] = second compound 0.0316 µM, first compound 0.0316 µM
[2] = second compound 0.0316 µM, first compound 0.1 µM
[3] = second compound 0.0316 µM, first compound 0.316 µM
[4] = second compound 0.0316 µM, first compound 1 µM
[5] = second compound 0.0316 µM, first compound 3.16 µM
[6] = second compound 0.0316 µM, first compound 10 µM
[7] = second compound 0.1 µM, first compound 0.0316 µM
[8] = second compound 0.1 µM, first compound 0.1 µM
[9] = second compound 0.1 µM, first compound 0.316 µM
[10] = second compound 0.1 µM, first compound 1 µM
[11] = second compound 0.1 µM, first compound 3.16 µM
[12] = second compound 0.1 µM, first compound 10 µM
[13] = second compound 0.316 µM, first compound 0.0316 µM
[14] = second compound 0.316 µM, first compound 0.1 µM
[15] = second compound 0.316 µM, first compound 0.316 µM
[16] = second compound 0.316 µM, first compound 1 µM
[17] = second compound 0.316 µM, first compound 3.16 µM
[18] = second compound 0.316 µM, first compound 10 µM
[19] = second compound 1 µM, first compound 0.0316 µM
[20] = second compound 1 µM, first compound 0.1 µM
[21] = second compound 1 µM, first compound 0.316 µM
[22] = second compound 1 µM, first compound 1 µM
[23] = second compound 1 µM, first compound 3.16 µM
[24] = second compound 1 µM, first compound 10 µM
[25] = second compound 3.16 µM, first compound 0.0316 µM
[26] = second compound 3.16 µM, first compound 0.1 µM
[27] = second compound 3.16 µM, first compound 0.316 µM
[28] = second compound 3.16 µM, first compound 1 µM
[29] = second compound 3.16 µM, first compound 3.16 µM
[30] = second compound 3.16 µM, first compound 10 µM
[31] = second compound 10 µM, first compound 0.0316 µM
[32] = second compound 10 µM, first compound 0.1 µM
[33] = second compound 10 µM, first compound 0.316 µM
[34] = second compound 10 µM, first compound 1 µM
[35] = second compound 10 µM, first compound 3.16 µM
[36] = second compound 10 µM, first compound 10 µM
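Note: spheroids exposed to drugs for one week before readout.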
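Throughout, for viability, T/C: percent viability relative to DMSO vehicle control wells set as 100%.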

In the case of `CCc1cc2c(N3CCc4c(cc(Cn5ccnc5)cc4-c4cn(C)nc4C(F)(F)F)C3=O)ccnc2c(OC)n1` + COC1C(OC(N)=O)C(O)C(Oc2ccc3c(O)c(NC(=O)c4ccc(O)c(CC=C(C)C)c4)c(=O)oc3c2C)OC1(C)C, the IC50 (second compound 0.0316 µM) is reported as 0.242 µM, the IC50 (second compound 0.1 µM) is reported as 0.382 µM and the IC50 (second compound 0.316 µM) is reported as 0.332 µM. For the same compound, the IC50 (second compound 1 µM) was 0.258 µM, the IC50 (second compound 3.16 µM) was 0.225 µM and the IC50 (second compound 10 µM) was 0.299 µM. It also gave a viability, T/C [1] of 81.8%, a viability, T/C [2] of 60.3% and a viability, T/C [3] of 46.7%. For the same compound, the viability, T/C [4] was 38.5%, the viability, T/C [5] was 28% and the viability, T/C [6] was 25.9%. It also gave a viability, T/C [7] of 81.9%, a viability, T/C [8] of 63.8% and a viability, T/C [9] of 54.2%. The viability, T/C [10] was 40.9%, the viability, T/C [11] was 25.8% and the viability, T/C [12] was 22.7%. For the same compound, the viability, T/C [13] was 77.7%, the viability, T/C [14] was 57.7% and the viability, T/C [15] was 52.6%. For the same compound, the viability, T/C [16] was 43%, the viability, T/C [17] was 28.6% and the viability, T/C [18] was 26.6%. The viability, T/C [19] was 91.7%, the viability, T/C [20] was 60.2% and the viability, T/C [21] was 46.5%. The viability, T/C [22] was 45%, the viability, T/C [23] was 22.5% and the viability, T/C [24] was 26.1%. For the same compound, the viability, T/C [25] was 85.2%, the viability, T/C [26] was 54.2% and the viability, T/C [27] was 48.5%. For the same compound, the viability, T/C [28] was 38.5%, the viability, T/C [29] was 28.1% and the viability, T/C [30] was 21.1%. For the same compound, the viability, T/C [31] was 79.1%, the viability, T/C [32] was 64.5% and the viability, T/C [33] was 47%. For the same compound, the viability, T/C [34] was 40.1%, the viability, T/C [35] was 32% and the viability, T/C [36] was 25.9%.
`COc1cc2cc(C(=O)CCC(=O)O)sc2cc1OC` + COC1C(OC(N)=O)C(O)C(Oc2ccc3c(O)c(NC(=O)c4ccc(O)c(CC=C(C)C)c4)c(=O)oc3c2C)OC1(C)C was tested, and the IC50 (second compound 0.0316 µM) was > 10 µM, the IC50 (second compound 0.1 µM) was > 10 µM and the IC50 (second compound 0.316 µM) was > 10 µM. For the same compound, the IC50 (second compound 1 µM) was > 10 µM, the IC50 (second compound 3.16 µM) was > 10 µM and the IC50 (second compound 10 µM) was > 10 µM. For the same compound, the viability, T/C [1] was 93.6%, the viability, T/C [2] was 98.3% and the viability, T/C [3] was 87.9%. It also gave a viability, T/C [4] of 106%, a viability, T/C [5] of 99.6% and a viability, T/C [6] of 104%. For the same compound, the viability, T/C [7] was 85.9%, the viability, T/C [8] was 97.5% and the viability, T/C [9] was 98.2%. The viability, T/C [10] was 86.4%, the viability, T/C [11] was 94.3% and the viability, T/C [12] was 101%. The viability, T/C [13] was 105%, the viability, T/C [14] was 113% and the viability, T/C [15] was 88.1%. The viability, T/C [16] was 110%, the viability, T/C [17] was 91.6% and the viability, T/C [18] was 110%. For the same compound, the viability, T/C [19] was 86.7%, the viability, T/C [20] was 93% and the viability, T/C [21] was 94.5%. The viability, T/C [22] was 97.9%, the viability, T/C [23] was 97.7% and the viability, T/C [24] was 111%. The viability, T/C [25] was 99.2%, the viability, T/C [26] was 101% and the viability, T/C [27] was 103%. The viability, T/C [28] was 89.3%, the viability, T/C [29] was 81.1% and the viability, T/C [30] was 75.1%. The viability, T/C [31] was 98.4%, the viability, T/C [32] was 109% and the viability, T/C [33] was 102%. It also gave a viability, T/C [34] of 106%, a viability, T/C [35] of 81.1% and a viability, T/C [36] of 99.7%.
`O=C(Nc1ccc(O)c(NS(=O)(=O)c2ccc(F)cc2)c1)c1ccc(-c2ccccc2)cc1` + COC1C(OC(N)=O)C(O)C(Oc2ccc3c(O)c(NC(=O)c4ccc(O)c(CC=C(C)C)c4)c(=O)oc3c2C)OC1(C)C was tested, and the IC50 (second compound 0.0316 µM) was > 10 µM, the IC50 (second compound 0.1 µM) was > 10 µM and the IC50 (second compound 0.316 µM) was > 10 µM. For the same compound, the IC50 (second compound 1 µM) was > 10 µM, the IC50 (second compound 3.16 µM) was > 10 µM and the IC50 (second compound 10 µM) was > 10 µM. The viability, T/C [1] was 89.2%, the viability, T/C [2] was 87.5% and the viability, T/C [3] was 109%. It also gave a viability, T/C [4] of 99.4%, a viability, T/C [5] of 103% and a viability, T/C [6] of 69.1%. It also gave a viability, T/C [7] of 91%, a viability, T/C [8] of 96.8% and a viability, T/C [9] of 98.6%. It also gave a viability, T/C [10] of 101%, a viability, T/C [11] of 94.8% and a viability, T/C [12] of 87.3%. For the same compound, the viability, T/C [13] was 108%, the viability, T/C [14] was 101% and the viability, T/C [15] was 82.2%. The viability, T/C [16] was 101%, the viability, T/C [17] was 94.8% and the viability, T/C [18] was 66%. For the same compound, the viability, T/C [19] was 90.6%, the viability, T/C [20] was 88.4% and the viability, T/C [21] was 89.6%. It also gave a viability, T/C [22] of 98.3%, a viability, T/C [23] of 99.9% and a viability, T/C [24] of 80.9%. The viability, T/C [25] was 108%, the viability, T/C [26] was 88.3% and the viability, T/C [27] was 94.5%. The viability, T/C [28] was 118%, the viability, T/C [29] was 94.6% and the viability, T/C [30] was 85.7%. The viability, T/C [31] was 97.7%, the viability, T/C [32] was 103% and the viability, T/C [33] was 93.8%. For the same compound, the viability, T/C [34] was 94.7%, the viability, T/C [35] was 104% and the viability, T/C [36] was 69.4%.
